Data on 18 molecules can be found in US20250019377A1 (JACOBIO PHARMACEUTICALS CO., LTD, priority 2021, published 2025).

Molecules are shown by their SMILES.

The test system of one test is AGS cells (K-Ras G12D). In words: 2D cell growth inhibition assay, AGS. The class given is cell-based. To be noted: Homo sapiens, 144 h, 6 days, absolute IC50.
The test system of test [1] is AsPC-1 cells (K-Ras G12D). In words: 2D cell growth inhibition assay, AsPC-1. The class given is cell-based. To be noted: Homo sapiens, ASPC1, 144 h, AsPC-1, K-Ras G12D, 6 days, absolute IC50.
In another test the test system is SW620 cells (K-Ras G12V). The test is described as follows: 2D cell growth inhibition assay, SW620. The class given is cell-based. To be noted: Homo sapiens, SW-620, 144 h, 6 days, absolute IC50.
Test [2] deals with T1, K-Ras G12V (Homo sapiens, UniProt P01116, G12V). The test is described as follows: SOS1 catalyzed nucleotide exchange assay (GDP form K-Ras), K-Ras G12V. To be noted: read-out: K-Ras G12V GDP Biochemical Activity (IC50).
In test [3] the target is T1, K-Ras G12V. In words: biochemical.
Test [4] concerns p-ERK in AGS cells (K-Ras G12D). In words: Phospho-ERK1/2(THR202/TYR204) HTRF assay, AGS. The class given is cell-based. To be noted: Homo sapiens, 2 h, 2 hours incubation.
Test [5] has as its system p-ERK in SW620 cells (K-Ras G12V). In words: Phospho-ERK1/2(THR202/TYR204) HTRF assay, SW620. It is filed as cell-based. The note with it: Homo sapiens, SW-620, 2 h, 2 hours incubation.

T1 sequence (P01116 1-169 isoform P01116-2 G12V): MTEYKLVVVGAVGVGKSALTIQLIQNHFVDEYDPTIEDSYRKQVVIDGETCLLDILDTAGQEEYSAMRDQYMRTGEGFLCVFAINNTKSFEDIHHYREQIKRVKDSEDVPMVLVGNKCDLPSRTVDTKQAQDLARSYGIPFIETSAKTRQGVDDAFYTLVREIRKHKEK

As to `C#Cc1c(F)ccc2cc(O)cc(-c3ncc4c(N5CCCO[C@H]6C[C@H]65)nc(OC[C@@]56CCCN5C[C@H](F)C6)nc4c3F)c12` (single isomer, unassigned) [Compound 7A], the IC50 in the test with AGS cells (K-Ras G12D) was 175 nM; in test [1], 1510 nM; with SW620 cells (K-Ras G12V), 846 nM.

Take `C#Cc1c(F)ccc2cc(O)cc(-c3ncc4c(N5CCCOCC5)nc(OC[C@H]5CCCN5C)nc4c3F)c12` [Compound 2, (R)-5-ethynyl-6-fluoro-4-(8-fluoro-2-((1-methylpyrrolidin-2-yl)methoxy)-4-(1,4-oxazepan-4-yl)pyrido[4,3-d]pyrimidin-7-yl)naphthalen-2-ol]: the half-maximal inhibitory concentration (IC50) turned out to be 4.99 nM on K-Ras G12V [2]; 178 nM with AGS cells (K-Ras G12D); 293 nM in test [1]; 182 nM in the test on SW620 cells (K-Ras G12V); 207 nM against K-Ras G12V [3].

Turning to `C#Cc1c(F)ccc2cc(O)cc(-c3ncc4c(N5CCCOCC5)nc(OCC56CCCN5CC(F)(F)C6)nc4c3F)c12` (centres unmarked) [Compound 9, 4-(2-((2,2-difluorotetrahydro-1H-pyrrolizin-7a(5H)-yl)methoxy)-8-fluoro-4-(1,4-oxazepan-4-yl)pyrido[4,3-d]pyrimidin-7-yl)-5-ethynyl-6-fluoronaphthalen-2-ol], the IC50 in test [4] was 66.2 nM; in test [5], 15.4 nM; in the test with AGS cells (K-Ras G12D) it was 186 nM; in test [1], 586 nM; in the test with SW620 cells (K-Ras G12V) it was 171 nM.

In the case of `C#Cc1c(F)ccc2cc(O)cc(-c3ncc4c(N5CCOCC(=C)C5)nc(OC[C@@]56CCCN5C[C@H](F)C6)nc4c3F)c12` [Compound 24, 5-ethynyl-6-fluoro-4-(8-fluoro-2-(((2R,7aS)-2-fluorotetrahydro-1H-pyrrolizin-7a(5H)-yl)methoxy)-4-(6-methylene-1,4-oxazepan-4-yl)pyrido[4,3-d]pyrimidin-7-yl)naphthalen-2-ol], the IC50 was determined as 23.1 nM in test [4]; 4.39 nM in test [5]; 42.4 nM in the test with AGS cells (K-Ras G12D); 381 nM in test [1]; 15.3 nM in the test with SW620 cells (K-Ras G12V).

Regarding `C#Cc1c(F)c(F)cc2cc(O)cc(-c3ncc4c(N5CCCOCC5)nc(OC[C@@]56CCCN5C[C@H](F)C6)nc4c3F)c12` [Compound 29], the concentration for half-maximal inhibition (IC50) in test [4] turned out to be 3.3 nM; in test [5], 7.74 nM; in the test with AGS cells (K-Ras G12D), 8.22 nM; in test [1], 53.6 nM; in the test on SW620 cells (K-Ras G12V), 4.62 nM.

In the case of `C#Cc1c(F)ccc2cc(O)cc(-c3ncc4c(N5CCOCC(=O)C5)nc(OC[C@@]56CCCN5C[C@H](F)C6)nc4c3F)c12` [Compound 30, 4-(7-(8-ethynyl-7-fluoro-3-hydroxynaphthalen-1-yl)-8-fluoro-2-(((2R,7aS)-2-fluorotetrahydro-1H-pyrrolizin-7a(5H)-yl)methoxy)pyrido[4,3-d]pyrimidin-4-yl)-1,4-oxazepan-6-one trifluoroacetic acid], the IC50 came to 2.04 nM in test [4] and 3.97 nM in test [5].

As to `C#Cc1c(F)ccc2cc(O)cc(-c3ncc4c(N5CCOCCC56CC6)nc(OC[C@@]56CCCN5C[C@H](F)C6)nc4c3F)c12` [Compound 43, 5-ethynyl-6-fluoro-4-(8-fluoro-2-(((2R,7aS)-2-fluorotetrahydro-1H-pyrrolizin-7a(5H)-yl)methoxy)-4-(7-oxa-4-azaspiro[2.6]nonan-4-yl)pyrido[4,3-d]pyrimidin-7-yl)naphthalen-2-ol trifluoroacetic acid], the IC50 stood at 101 nM in test [4]; 21.8 nM in test [5]; 248 nM with AGS cells (K-Ras G12D); 1850 nM in test [1]; 76.3 nM in the test with SW620 cells (K-Ras G12V).

In the case of `C#Cc1c(F)ccc2cc(O)cc(-c3ncc4c(N5CCCOCC56CC6)nc(OC[C@@]56CCCN5C[C@H](F)C6)nc4c3F)c12` [Compound 50, 5-ethynyl-6-fluoro-4-(8-fluoro-2-(((2R,7aS)-2-fluorotetrahydro-1H-pyrrolizin-7a(5H)-yl)methoxy)-4-(8-oxa-4-azaspiro[2.6]nonan-4-yl)pyrido[4,3-d]pyrimidin-7-yl)naphthalen-2-ol trifluoroacetic acid], the half-inhibitory concentration (IC50) in test [5] amounted to 121 nM.

`C#Cc1cccc2cc(O)cc(-c3ncc4c(N5CCCOCC5)nc(OC[C@@]56CCCN5C[C@H](F)C6)nc4c3F)c12` [Compound 82]: the concentration for half-maximal inhibition (IC50) is 2.93 nM in test [4]; 13.8 nM in test [5]; 15.5 nM in the test with AGS cells (K-Ras G12D); 226 nM in test [1]; 116 nM in the test on SW620 cells (K-Ras G12V).

`C#Cc1c(F)ccc2cc(O)cc(-c3ncc4c(N5CCOCC(COC)C5)nc(OC[C@@]56CCCN5C[C@H](F)C6)nc4c3F)c12` (some centres unmarked) [Compound 87]: the IC50 in test [4] came to 1.5 nM; in test [5], 5.98 nM; in the test with AGS cells (K-Ras G12D) it was 3.41 nM; in test [1], 32.8 nM; in the test with SW620 cells (K-Ras G12V), 27.2 nM.

The molecule `C#Cc1c(F)ccc2cc(O)cc(-c3ncc4c(N5CC6COCC5C6)nc(OC[C@@]56CCCN5C[C@H](F)C6)nc4c3F)c12` (stereo partly drawn) [Compound 94, 4-(4-(3-oxa-6-azabicyclo[3.2.1]octan-6-yl)-8-fluoro-2-(((2R,7aS)-2-fluorotetrahydro-1H-pyrrolizin-7a(5H)-yl)methoxy)pyrido [4,3-d]pyrimidin-7-yl)-5-ethynyl-6-fluoro naphthalen-2-ol] showed an IC50 in test [5] of 275 nM.

Turning to `C#Cc1c(F)ccc2cc(O)cc(-c3ncc4c(N5CCOCC(C)(C)C5)nc(OC[C@@]56CCCN5C[C@H](F)C6)nc4c3F)c12` [Compound 102, 4-(4-(6,6-dimethyl-1,4-oxazepan-4-yl)-8-fluoro-2-(((2R,7aS)-2-fluorotetrahydro-1H-pyrrolizin-7a(5H)-yl)methoxy)pyrido[4,3-d]pyrimidin-7-yl)-5-ethynyl-6-fluoro-naphthalen-2-ol], the IC50 came to 192 nM in test [4] and 47.1 nM in test [5].

Regarding `C#Cc1c(F)ccc2cc(O)cc(-c3ncc4c(N5CCOCC6(CC6)C5)nc(OC[C@@]56CCCN5C[C@H](F)C6)nc4c3F)c12` [Compound 103, 5-ethynyl-6-fluoro-4-(8-fluoro-2-(((2R,7aS)-2-fluorotetrahydro-1H-pyrrolizin-7a(5H)-yl)methoxy)-4-(5-oxa-8-azaspiro[2.6]nonan-8-yl)pyrido[4,3-d]pyrimidin-7-yl) naphthalen-2-ol], the concentration for half-maximal inhibition (IC50) was found to be 187 nM in test [5] and 109 nM in the test with SW620 cells (K-Ras G12V).

For `C#Cc1c(F)ccc2cc(O)cc(-c3ncc4c(N5CC(OC)COCC5C)nc(OC[C@@]56CCCN5C[C@H](F)C6)nc4c3F)c12` (stereo partly drawn) [Compound 106, 5-ethynyl-6-fluoro-4-(8-fluoro-2-(((2R,7aS)-2-fluorotetrahydro-1H-pyrrolizin-7a(5H)-yl)methoxy)-4-(6-methoxy-3-methyl-1,4-oxazepan-4-yl)pyrido[4,3-d]pyrimidin-7-yl)naphthalen-2-ol], the IC50 amounted to 39.4 nM in test [4]; 21.5 nM in test [5]; 98.1 nM with AGS cells (K-Ras G12D); 681 nM in test [1]; 66.4 nM with SW620 cells (K-Ras G12V).

As to `C#Cc1c(F)ccc2c(F)c(O)cc(-c3ncc4c(N5CCCOCC5)nc(OC[C@@]56CCCN5C[C@H](F)C6)nc4c3F)c12` [Compound 107, 5-ethynyl-1,6-difluoro-4-(8-fluoro-2-(((2R,7aS)-2-fluorotetrahydro-1H-pyrrolizin-7a(5H)-yl)methoxy)-4-(1,4-oxazepan-4-yl)pyrido[4,3-d]pyrimidin-7-yl)naphthalen-2-ol], the IC50 is 66.1 nM in test [4]; 40.2 nM in test [5]; 504 nM in the test on AGS cells (K-Ras G12D); 885 nM in test [1]; 185 nM with SW620 cells (K-Ras G12V).

`C#Cc1c(F)ccc2cc(O)cc(-c3ncc4c(N5[C@H]6COC[C@H](C)[C@@H]5C6)nc(OC[C@@]56CCCN5C[C@H](F)C6)nc4c3F)c12` [Compound 110, 5-ethynyl-6-fluoro-4-(8-fluoro-2-(((2R,7aS)-2-fluorotetrahydro-1H-pyrrolizin-7a(5H)-yl)methoxy)-4-((1R,5R,6S)-5-methyl-3-oxa-7-azabicyclo[4.1.1]octan-7-yl)pyrido [4,3-d]pyrimidin-7-yl)naphthalen-2-ol]: the IC50 on K-Ras G12V [2] is 6.63 nM; in test [4], 44.3 nM; in test [5], 62.2 nM; with SW620 cells (K-Ras G12V) it was 81 nM; against K-Ras G12V [3], above 1000 nM.

`C#Cc1c(F)ccc2cccc(-c3ncc4c(N5CCCOC6CC65)nc(OC[C@@]56CCCN5C[C@H](F)C6)nc4c3F)c12` (stereo partly drawn) [Compound 115, 6-(7-(8-ethynyl-7-fluoronaphthalen-1-yl)-8-fluoro-2-(((2R,7aS)-2-fluorotetrahydro-1H-pyrrolizin-7a(5H)-yl)methoxy)pyrido [4,3-d]pyrimidin-4-yl)-2-oxa-6-azabicyclo [5.1.0]octane]: the IC50 is 46.5 nM in test [4]; 27.9 nM in test [5]; 133 nM with AGS cells (K-Ras G12D); 237 nM in test [1]; 163 nM in the test with SW620 cells (K-Ras G12V).

For `Oc1cc(-c2ncc3c(N4CCCOCC4)nc(OC[C@@]45CCCN4C[C@H](F)C5)nc3c2F)c2ccccc2c1` [Compound 118, 4-(8-fluoro-2-(((2R,7aS)-2-fluorotetrahydro-1H-pyrrolizin-7a(5H)-yl)methoxy)-4-(1,4-oxazepan-4-yl)pyrido[4,3-d]pyrimidin-7-yl)naphthalen-2-ol], the IC50 in test [4] was 113 nM; in test [5], 110 nM; with AGS cells (K-Ras G12D), 184 nM; in test [1] it was 1420 nM; in the test with SW620 cells (K-Ras G12V), 343 nM.
